# Results: patent publication US9493466B2, “Treatment of cancer with TOR kinase inhibitors” (Signal Pharmaceuticals, LLC, priority 2011, dated 2016)
# How the values were obtained:
# Assay in all cases: Growth inhibition assay for breast cancer
# Format in all cases: cell-based
# CAL-120 = CAL-120 (Basal, TN), 96 hours
# Description: (§1) Growth Inhibition Assay for Breast Cancer (BC) (Compound 1). All breast cancer cell lines were maintained and tested in appropriate culture media. The seeding density for each cell line was optimized to ensure assay linearity in 384-well plates.
# (§2) Increasing concentrations of Compound 1 were spotted via an acoustic dispenser (EDC ATS-100) into an empty 384-well plate. Compound 1 was spotted in a 10-point serial dilution fashion (3-fold dilution) in duplicate within the plate. The dimethyl sulfoxide (DMSO) concentration was kept constant for a final assay concentration of 0.1% DMSO. Plates were replicated for use against different cell lines and testing periods. After compound plate replication, all plates were sealed (Agilent ThermoLoc) and stored at −20° C. for up to 1 month. When ready for testing, plates were removed from the freezer, thawed, and unsealed just prior to the addition of the test cell.
# (§3) Prior to testing, cells were grown and expanded in culture flasks to provide sufficient amounts of starting material. Cells were then diluted to their desired densities and added directly to the Compound 1-spotted 384-well plates. Cells were allowed to grow for 96 hours at 37° C./5% CO2. At the time of setup (t0), initial cell number was assessed via a viability assay (Cell Titer-Glo) and read for luminescence. After 96 hours, cell viability of Compound 1-treated cells was assessed via Cell Titer-Glo and read for luminescence.
# (§4) Cell lines were assayed for growth inhibition by Compound 1 for at least two independent tests. All data was normalized and represented as a percentage of the DMSO-treated control cells. […] The potency of Compound 1 in different subtypes of breast cancer cell lines is shown in FIG. 7A, while the correlation of Compound 1 sensitivity to ER, HER, PIK3CA, and TP53 status is shown in FIG. 7B.
# CAL-51 = CAL-51 (Basal, TN), 96 hours
# Description: as §1, §2, §3, §4
# DU4475 = DU4475 (Basal, TN), 96 hours
# Description: as §1, §2, §3, §4
# EFM-192A = EFM-192A (Luminal, Her2+), 96 hours
# Description: as §1, §2, §3, §4
# HCC1428 = HCC1428 (Luminal, ER+), 96 hours
# Description: as §1, §2, §3, §4
# HCC1937 = HCC1937 (Basal, TN), 96 hours
# Description: as §1, §2, §3, §4
# HCC1954 = HCC1954 (Basal, Her2+), 96 hours
# Description: as §1, §2, §3, §4
# HCC2157 = HCC2157 (Basal, TN), 96 hours
# Description: as §1, §2, §3, §4
# HS578T = HS578T (Basal, TN), 96 hours
# Description: as §1, §2, §3, §4
# MCF12A = MCF12A (Basal, TN), 96 hours
# Description: as §1, §2, §3, §4
# MDA-MB-453 = MDA-MB-453 (Luminal, Her2+), 96 hours
# Description: as §1, §2, §3, §4
# UACC-812 = UACC-812 (Luminal, Her2+), 96 hours
# Description: as §1, §2, §3, §4
# ZR-75-1 = ZR-75-1 (Luminal, ER+), 96 hours
# Description: as §1, §2, §3, §4
smiles,measurement,setting,value
"CO[C@H]1CC[C@H](N2C(=O)CNc3ncc(-c4ccc(C(C)(C)O)nc4)nc32)CC1 [Compound 1, 7-(6-(2-hydroxypropan-2-yl)pyridin-3-yl)-1-((1r,4r)-4-methoxycyclohexyl)-3,4-dihydropyrazino-[2,3-b]pyrazin-2(1H)-one]",GI50,CAL-120,700 nM
same,GI50,CAL-51,119 nM
same,GI50,DU4475,1240 nM
same,GI50,EFM-192A,192 nM
same,GI50,HCC1428,98.4 nM
same,GI50,HCC1937,697 nM
same,GI50,HCC1954,197 nM
same,GI50,HCC2157,399 nM
same,GI50,HS578T,343 nM
same,GI50,MCF12A,44.4 nM
same,GI50,MDA-MB-453,143 nM
same,GI50,UACC-812,47.8 nM
same,GI50,ZR-75-1,32.1 nM
